Data: patent publication US20100267561A1, “HERBICIDAL PYRIDAZINONE DERIVATIVES” (priority 2007, published 2010)

What was measured:
Format in all cases: in vivo
[1] = system: barnyardgrass (Echinochloa crus-galli); assay: Test B flooded paddy test plant response
In short: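 Step one: raise plants to 2 leaves. Step two: flood pots 3 cm over the soil and apply compound into the water, keeping this depth. Step three: after 13–15 greenhouse days, score visually versus controls, 0–100, where 100 means complete control.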

[2] = system: eastern black (E.B.) nightshade (Solanum ptycanthum); assay: Test B pre-/postemergence plant response; details: Preemergence
In short: (§1)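 Preemergence and postemergence (plants 2-18 cm, 1- to 4-leaf stage) applications used test chemicals in a non-phytotoxic solvent with surfactant. Plants were held in a greenhouse 13 to 15 days, then rated visually against controls on a 0-100 scale (0 no effect, 100 complete control).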

wild oat (Avena fatua) = assay: Test B pre-/postemergence plant response; details: Preemergence
In short: as §1

[3] = system: lambsquarters (Chenopodium album); assay: Test B pre-/postemergence plant response; details: Preemergence
In short: as §1

[4] = system: bermudagrass (Cynodon dactylon); assay: Test B pre-/postemergence plant response; details: for Plant response rating, Bermudagrass: Preemergence
In short: as §1

[5] = system: blackgrass (Alopecurus myosuroides); assay: Test B pre-/postemergence plant response; details: for Plant response rating, Blackgrass: Preemergence
In short: as §1

[6] = system: morningglory (Ipomoea coccinea); assay: Test B pre-/postemergence plant response; details: Preemergence
In short: as §1

corn (Zea mays) = assay: Test B pre-/postemergence plant response; details: Preemergence
In short: as §1

[7] = system: yellow nutsedge (Cyperus esculentus); assay: Test B pre-/postemergence plant response; details: Preemergence
In short: as §1

[8] = system: giant foxtail (Setaria faberii); assay: Test B pre-/postemergence plant response; details: Preemergence
In short: as §1

[9] = system: velvetleaf (Abutilon theophrasti); assay: Test B pre-/postemergence plant response; details: Preemergence
In short: as §1

[10] = 31 g ai/ha, 0 to 100 scale, 0 no effect, 100 complete control
[11] = 250 g ai/ha, preemergence, 0-100 scale

## Cc1cc(-c2ccc(C(F)(F)F)cc2)nn1-c1c(OC(=O)C(C)(C)C)cnn(C)c1=O [Compound 2]
[1]; Flood (flooded paddy test), 62 g ai/ha, scale 0 to 100, 0 no effect, 100 complete control
  Plant response rating, Barnyardgrass: 0
[1]; Flood (flooded paddy test), 125 g ai/ha, scale 0 to 100, 0 no effect, 100 complete control
  Plant response rating, Barnyardgrass: 20
[1]; Flood (flooded paddy test), 250 g ai/ha, scale 0 to 100, 0 no effect, 100 complete control
  Plant response rating, Barnyardgrass: 45
[1]; Flood, 31 g ai/ha, scale 0 to 100
  Plant response rating, Barnyardgrass: 0
[2]; [10]
  Plant response rating, Nightshade, E. B.: 0
[2]; 62 g ai/ha, scale 0 to 100
  Plant response rating, Nightshade, E. B.: 0
[2]; 125 g ai/ha, scale 0 to 100
  Plant response rating, Nightshade, E. B.: 0
[2]; 250 g ai/ha, scale 0 to 100
  Plant response rating, Nightshade, E. B.: 0
Wild oat (Avena fatua); [10]
  Plant response rating, Oat, Wild: 0
Wild oat (Avena fatua); 62 g ai/ha, scale 0 to 100
  Plant response rating, Oat, Wild: 50
Wild oat (Avena fatua); 250 g ai/ha, scale 0 to 100
  Plant response rating, Oat, Wild: 60
[3]; [10]
  Plant response rating, Lambsquarters: 0
[3]; 62 g ai/ha, scale 0 to 100
  Plant response rating, Lambsquarters: 0
[3]; 125 g ai/ha, scale 0 to 100
  Plant response rating, Lambsquarters: 0
[3]; 250 g ai/ha, scale 0 to 100
  Plant response rating, Lambsquarters: 30
[4]; [11]
  Bermudagrass plant response rating: 100
[4]; [10]
  Plant response rating, Bermudagrass: 100
[4]; 62 g ai/ha, scale 0 to 100
  Plant response rating, Bermudagrass: 100
[4]; 125 g ai/ha, scale 0 to 100
  Plant response rating, Bermudagrass: 100
[5]; [11]
  Blackgrass plant response rating: 100
[5]; [10]
  Plant response rating, Blackgrass: 60
[5]; 62 g ai/ha, scale 0 to 100
  Plant response rating, Blackgrass: 80
[5]; 125 g ai/ha, scale 0 to 100
  Plant response rating, Blackgrass: 100
[6]; [10]
  Plant response rating, Morningglory: 0
[6]; 62 g ai/ha, scale 0 to 100
  Plant response rating, Morningglory: 0
[6]; 125 g ai/ha, scale 0 to 100
  Plant response rating, Morningglory: 0
[6]; 250 g ai/ha, scale 0 to 100
  Plant response rating, Morningglory: 0
Corn (Zea mays); [10]
  Plant response rating, Corn: 50
Corn (Zea mays); 62 g ai/ha, scale 0 to 100
  Plant response rating, Corn: 90
Corn (Zea mays); 125 g ai/ha, scale 0 to 100
  Plant response rating, Corn: 95
Corn (Zea mays); 250 g ai/ha, scale 0 to 100
  Plant response rating, Corn: 95
[7]; [10]
  Plant response rating, Nutsedge, Yellow: 0
[7]; 62 g ai/ha, scale 0 to 100
  Plant response rating, Nutsedge, Yellow: 0
[7]; 125 g ai/ha, scale 0 to 100
  Plant response rating, Nutsedge, Yellow: 0
[7]; 250 g ai/ha, scale 0 to 100
  Plant response rating, Nutsedge, Yellow: 0
[8]; [10]
  Plant response rating, Foxtail, Giant: 100
[8]; 62 g ai/ha, scale 0 to 100
  Plant response rating, Foxtail, Giant: 100
[8]; 125 g ai/ha, scale 0 to 100
  Plant response rating, Foxtail, Giant: 100
[8]; 250 g ai/ha, scale 0 to 100
  Plant response rating, Foxtail, Giant: 100
[9]; [10]
  Plant response rating, Velvetleaf: 0
[9]; 62 g ai/ha, scale 0 to 100
  Plant response rating, Velvetleaf: 0
[9]; 125 g ai/ha, scale 0 to 100
  Plant response rating, Velvetleaf: 0
[9]; 250 g ai/ha, scale 0 to 100
  Plant response rating, Velvetleaf: 10
